Consider one compound from article PMC12563652 (International Journal of Molecular Sciences, 2025).

Data set [1] has as its system 3T3-L1 cells. Description: Lipid accumulation (AdipoRed assay) in 3T3-L1 cells. The class given is cell-based, mouse. How it is done: (§1) The 3T3-L1 mouse embryonic fibroblast cell line (ATCC CRL-11605) was cultured according to the standard protocol in Dulbecco’s Modified Eagle Medium (DMEM) supplemented with 10% bovine calf serum, 100 µg/mL streptomycin, and 100 IU/mL penicillin, at 37 °C in a humidified atmosphere containing 5% CO2. Cells were seeded at a density of 10,000 cells/well in collagen type I–coated (10 µg/mL) 96-well plates and allowed to attach for 24 h. Differentiation was initiated by replacing the medium with induction medium composed of DMEM, 0.5 mM 3-isobutyl-1-methylxanthine (IBMX), 1 µM dexamethasone, and 10% fetal bovine serum (FBS). After 48 h (differentiation day 2), the medium was replaced with DMEM supplemented with 10% FBS and 10 µg/mL human recombinant insulin. After an additional 24 h, the medium was replaced with DMEM supplemented with 10% bovine calf serum, 100 µg/mL streptomycin, and 100 IU/mL penicillin. The medium was refreshed every 24 h for 10 consecutive days to allow full differentiation into adipocytes.
On day 10 of differentiation, cells were treated with test compounds for 24 h. To investigate the involvement of the TAAR1 receptor, cells were pre-treated for 15 min with the selective TAAR1 antagonist RTI-7470-44 (40 nM) before compound exposure. After incubation, the culture medium was removed, and wells were gently rinsed with 200 µL PBS and refilled with 200 µL PBS. AdipoRed reagent (5 µL; Lonza) was added to each well, mixed, and incubated at room temperature for 10 min. Fluorescence was measured using the POLARstar Omega plate reader (excitation 485 nm, emission 535 nm).

Data set [2] addresses T1, α2A-adrenoceptor (Homo sapiens, UniProt P08913).
T1 sequence (P08913 1-465): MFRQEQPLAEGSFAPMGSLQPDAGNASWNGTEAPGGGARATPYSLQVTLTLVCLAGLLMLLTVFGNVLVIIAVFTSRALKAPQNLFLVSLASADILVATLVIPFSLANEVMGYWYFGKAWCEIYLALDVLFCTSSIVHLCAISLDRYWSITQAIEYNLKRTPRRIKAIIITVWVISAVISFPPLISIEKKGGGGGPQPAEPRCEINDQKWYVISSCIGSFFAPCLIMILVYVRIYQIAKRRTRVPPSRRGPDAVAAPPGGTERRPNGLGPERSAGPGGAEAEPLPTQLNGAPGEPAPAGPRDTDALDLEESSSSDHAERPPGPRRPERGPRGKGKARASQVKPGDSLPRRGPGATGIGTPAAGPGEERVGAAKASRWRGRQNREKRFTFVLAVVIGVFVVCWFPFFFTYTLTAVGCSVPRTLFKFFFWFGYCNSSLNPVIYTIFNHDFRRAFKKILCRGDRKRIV
Description: α2A-adrenoceptor intrinsic activity, agonist mode (Tango bla reporter assay). In kind it is cell-based. To be noted: read-out: α2A Ago Emax, receptor activation relative to the full agonist control.
Description: Intrinsic α2A-adrenoceptor activity was assessed using Tango assay technology, which utilizes a mammalian-optimized beta-lactamase (bla) reporter gene in conjunction with a FRET-enabled substrate to provide reliable and sensitive detection in cells. The intrinsic activity test was conducted based on the guidelines provided by the maker of the test kit (Invitrogen, Life Technologies, Carlsbad, CA, USA). […] To perform the agonist assay, 8 μL of a 5-fold higher concentration of agonist in assay medium was added to the cells. […] The agonist and antagonist plates were then incubated in a humidified incubator at 37 °C and 5% CO2 for 5 h. After incubation, cells were loaded with 8 μL of LiveBLAzer™-FRET B/G substrate mix (CCF4-AM), covered for light protection, and incubated at room temperature for 2 h.

Data set [3] concerns HEPG2 cell line. Description: Cell viability assay (PrestoBlue, metabolic function), HepG2. The class given is cell-based, human. The settings on record: 24 h, mean. As to the method: Prior to investigating the biological activity and molecular characteristics of the test compounds in vitro, a comprehensive cytotoxicity screening was performed using HepG2 and 3T3-L1 cell lines. Two complementary assays were applied: one based on the quantification of adenylate kinase release as an indicator of cell membrane damage, and another relying on resazurin reduction to assess cellular metabolic activity. These complementary assays enable sensitive and reliable detection of cytotoxic effects across diverse cell types. This preliminary assessment was carried out to ensure that subsequent functional analyses would not be confounded by nonspecific cytotoxic effects.
Cell viability was measured using PrestoBlue reagent (Thermo Fisher Scientific, Waltham, MA, USA), following the manufacturer’s instructions. After 24 h of compound treatment, PrestoBlue reagent was added to each well at 10% of the remaining medium volume. The plate was incubated at 37 °C for 15 min, and fluorescence was measured using the POLARstar Omega plate reader (excitation 530 nm, emission 580 nm). Results were expressed as a percentage of viable cells relative to the DMSO-treated control.

Data set [4] has as its target α2-adrenoceptor. Description: Competitive radioligand binding, [3H]clonidine, rat cerebral cortex. To be noted: n.a. = no activity at 10–5 M.
Description: The competitive radioligand-binding assay assessed affinity for α1- and α2-adrenoceptors. Experiments were carried out in the rat cerebral cortex. […] The membrane preparation and assay technique followed the previously reported protocol [10]. Radioactivity was measured using the MicroBeta2 scintillation counter (PerkinElmer, Kraków, Poland). The data was adjusted to match a single-site curve-fitting formula using Prism 8 (GraphPad Software, La Jolla, CA, USA), and the Ki values were estimated by means of the Cheng–Prusoff formula.
The subject of data set [5] is 3T3-L1 adipocytes. Kind of data set: Phospholipidosis, HCS LipidTOX imaging in 3T3-L1 adipocytes. In kind it is cell-based, mouse. How it is done:
as §1
Lipid accumulation and phospholipidosis were evaluated using the HCS LipidTOX Phospholipidosis and Steatosis Detection Kit (Thermo Fisher Scientific). Cells were cultured in black, clear-bottom 96-well plates and treated as described. Next, cells were fixed with 4% paraformaldehyde (15 min), washed with PBS, and stained with LipidTOX Green Neutral Lipid Stain (for steatosis) and LipidTOX Red Phospholipidosis Detection Reagent, prepared according to the manufacturer’s instructions. Nuclei were counterstained with Hoechst 33342 (2 µg/mL). Image acquisition and quantitative analysis were performed using High Content Screening (HCS) technology on the ImageXpress XLS system (Molecular Devices). Lipid droplet and phospholipid content were quantified using automated image analysis pipelines.

Data set [6] concerns HepG2 cells. Description: Glucose consumption (Amplex Red assay) in HepG2 cells. In kind it is cell-based, human. How it is done: The HepG2 human hepatocellular carcinoma cell line (ATCC® HB-8065™) was cultured in DMEM supplemented with 10% FBS, 100 µg/mL streptomycin, and 100 IU/mL penicillin at 37 °C in 5% CO2. Cells were seeded in 96-well plates at a density of 10,000 cells/well and used for experiments 24 h after plating.
Stock solutions of test compounds were prepared at a concentration of 10 mM in dimethyl sulfoxide (DMSO). At least 1 mg of each substance was carefully measured and mixed with the right amount of DMSO. A series of dilutions were made in DMSO and then further diluted in phosphate-buffered saline before being introduced into the cell culture medium. Precipitation or opalescence was assessed prior to application.
The glucose uptake was measured with the Amplex® Red Glucose/Glucose Oxidase Assay Kit from Thermo Fisher Scientific, following the guidelines provided by the maker. Cell culture supernatants were collected and incubated with a reaction mix containing 100 μM Amplex® Red reagent, 0.2 U/mL horseradish peroxidase (HRP), and 1 U/mL glucose oxidase at room temperature for 30 min in the dark. Fluorescence was measured at 530 nm excitation and 590 nm emission using the POLARstar Omega plate reader (BMG Labtech).

`[H]/N=C(\N)NN=Cc1c(Cl)cncc1Cl` [JP-14, (E)-2-((3,5-Dichloropyridin-4-yl)Methylene)Hydrazine-1-Carboximidamide]: the “lipid-lowering effect under TAAR1 blockade” value in data set [1] (10 µM + RTI-7470-44 (40 nM)) is reported as “completely abolished”. For the same compound, in data set [1] (10 µM, compared to vehicle-treated controls), the “lipid accumulation (intracellular lipid content), reduction” value came to 35%. The Emax in data set [2] was ~15%. Moreover, the “cellular metabolic function, percentage relative to control (live cells)” value in data set [3] (Table S4, 0.1 μM) is on record as 96%; in data set [3] (Table S4, 1 μM) it was 101%; in data set [3] (Table S4, 10 μM) it was 95%; in data set [3] (Table S4, 50 μM), 71%; in data set [3] (Table S4, 100 μM), 60%. For the same compound, in data set [4], the Ki amounted to 126 ± 27 nM. In addition, in data set [5] (10 µM + RTI-7470-44 (40 nM)), the “effect on phospholipidosis under TAAR1 blockade” value is on record as “reversed”. For the same compound, the “phospholipidosis (phospholipid accumulation)” value in data set [5] (10 µM, vs vehicle) is listed as “significantly reduced”. Besides, in data set [6] (10 µM + RTI-7470-44 (40 nM)), the “glucose-stimulating effect under TAAR1 blockade” value is on record as “substantially attenuated”. Also, the “increase in glucose consumption (uptake)” value in data set [6] (10 µM, relative to vehicle-treated cells) came out at 29%.

Usually Emax stands for the maximal effect, on the per cent scale that the assay sets. Usually Ki stands for a dissociation constant, usually derived from enzyme kinetics or from competition with a known ligand. The low end stands for higher affinity, the high end for lower affinity.
